Source: the supplement of paper PMC10307832

Key:
Assay in all cases: relative viability (nuclei count vs DMSO), 5 days (fraction); higher = more cells survive
NCI-H2087 = tested on: NCI-H2087
Outline: (§1)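 Lung cancer cell lines in 1536-well plates got either a single drug or a fixed anchor-drug dose together with five library-drug doses (not always all listed) in √10 steps, by pin tool, on the day after seeding. Nuclei were counted after 5 days, and relative viability is the treated-to-vehicle ratio of nuclei counts. Values are medians of duplicate plates.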

BEN = tested on: BEN
Outline: as §1

HCC-44 = tested on: HCC-44
Outline: as §1

NCI-H596 = tested on: NCI-H596
Outline: as §1

LCLC-103H = tested on: LCLC-103H
Outline: as §1

NCI-H1993 = tested on: NCI-H1993
Outline: as §1

HARA = tested on: HARA
Outline: as §1

EMC-BAC-2 = tested on: EMC-BAC-2
Outline: as §1

NCI-H2126 = tested on: NCI-H2126
Outline: as §1

LOU-NH91 = tested on: LOU-NH91
Outline: as §1

NCI-H647 = tested on: NCI-H647
Outline: as §1

NCI-H23 = tested on: NCI-H23
Outline: as §1

201T = tested on: 201T
Outline: as §1

NCI-H1395 = tested on: NCI-H1395
Outline: as §1

NCI-H3122 = tested on: NCI-H3122
Outline: as §1

NCI-H441 = tested on: NCI-H441
Outline: as §1

NCI-H727 = tested on: NCI-H727
Outline: as §1

NCI-H650 = tested on: NCI-H650
Outline: as §1

NCI-H522 = tested on: NCI-H522
Outline: as §1

NCI-H2347 = tested on: NCI-H2347
Outline: as §1

NCI-H838 = tested on: NCI-H838
Outline: as §1

NCI-H2023 = tested on: NCI-H2023
Outline: as §1

## O=c1cc(-c2cccc3c2Sc2ccccc2S3)oc(N2CCOCC2)c1 + Nc1ncn([C@H]2C[C@H](O)[C@@H](CO)O2)c(=O)n1 [Decitabine] (partner 2 µM)
NCI-H2087; first compound 0.08 µM
  relative viability: 0.231
NCI-H2087; first compound 0.253 µM
  relative viability: 0.257
NCI-H2087; first compound 0.8 µM
  relative viability: 0.266
NCI-H2087; first compound 2.53 µM
  relative viability: 0.242
NCI-H2087; first compound 8 µM
  relative viability: 0.238
BEN; first compound 0.08 µM
  relative viability: 0.649
BEN; first compound 0.253 µM
  relative viability: 0.699
BEN; first compound 0.8 µM
  relative viability: 0.69
BEN; first compound 2.53 µM
  relative viability: 0.586
BEN; first compound 8 µM
  relative viability: 0.943
HCC-44; first compound 0.08 µM
  relative viability: 0.93
HCC-44; first compound 0.253 µM
  relative viability: 1.02
HCC-44; first compound 0.8 µM
  relative viability: 0.968
HCC-44; first compound 2.53 µM
  relative viability: 0.88
HCC-44; first compound 8 µM
  relative viability: 0.965
NCI-H596; first compound 0.08 µM
  relative viability: 0.833
NCI-H596; first compound 0.253 µM
  relative viability: 0.951
NCI-H596; first compound 0.8 µM
  relative viability: 0.989
NCI-H596; first compound 2.53 µM
  relative viability: 0.997
NCI-H596; first compound 8 µM
  relative viability: 0.996
LCLC-103H; first compound 0.08 µM
  relative viability: 0.721
LCLC-103H; first compound 0.253 µM
  relative viability: 0.716
LCLC-103H; first compound 0.8 µM
  relative viability: 0.646
LCLC-103H; first compound 2.53 µM
  relative viability: 0.675
LCLC-103H; first compound 8 µM
  relative viability: 0.702
NCI-H1993; first compound 0.08 µM
  relative viability: 0.593
NCI-H1993; first compound 0.253 µM
  relative viability: 0.61
NCI-H1993; first compound 0.8 µM
  relative viability: 0.467
NCI-H1993; first compound 2.53 µM
  relative viability: 0.586
NCI-H1993; first compound 8 µM
  relative viability: 0.577
HARA; first compound 0.08 µM
  relative viability: 0.634
HARA; first compound 0.253 µM
  relative viability: 0.52
HARA; first compound 0.8 µM
  relative viability: 0.483
HARA; first compound 2.53 µM
  relative viability: 0.555
HARA; first compound 8 µM
  relative viability: 0.49
EMC-BAC-2; first compound 0.08 µM
  relative viability: 0.91
EMC-BAC-2; first compound 0.253 µM
  relative viability: 1.1
EMC-BAC-2; first compound 0.8 µM
  relative viability: 1.01
EMC-BAC-2; first compound 2.53 µM
  relative viability: 1.04
EMC-BAC-2; first compound 8 µM
  relative viability: 1.12
NCI-H2126; first compound 0.08 µM
  relative viability: 0.583
NCI-H2126; first compound 0.253 µM
  relative viability: 0.581
NCI-H2126; first compound 0.8 µM
  relative viability: 0.612
NCI-H2126; first compound 2.53 µM
  relative viability: 0.534
NCI-H2126; first compound 8 µM
  relative viability: 0.54
LOU-NH91; first compound 0.08 µM
  relative viability: 0.777
LOU-NH91; first compound 0.253 µM
  relative viability: 0.894
LOU-NH91; first compound 0.8 µM
  relative viability: 0.784
LOU-NH91; first compound 2.53 µM
  relative viability: 0.777
LOU-NH91; first compound 8 µM
  relative viability: 0.844
NCI-H647; first compound 0.08 µM
  relative viability: 0.428
NCI-H647; first compound 0.253 µM
  relative viability: 0.534
NCI-H647; first compound 0.8 µM
  relative viability: 0.414
NCI-H647; first compound 2.53 µM
  relative viability: 0.403
NCI-H647; first compound 8 µM
  relative viability: 0.45
NCI-H23; first compound 0.08 µM
  relative viability: 0.274
NCI-H23; first compound 0.253 µM
  relative viability: 0.314
NCI-H23; first compound 0.8 µM
  relative viability: 0.297
NCI-H23; first compound 2.53 µM
  relative viability: 0.264
NCI-H23; first compound 8 µM
  relative viability: 0.293
201T; first compound 0.08 µM
  relative viability: 0.855
201T; first compound 0.253 µM
  relative viability: 0.882
201T; first compound 0.8 µM
  relative viability: 0.893
201T; first compound 2.53 µM
  relative viability: 0.816
201T; first compound 8 µM
  relative viability: 0.744
NCI-H1395; first compound 0.08 µM
  relative viability: 0.711
NCI-H1395; first compound 0.253 µM
  relative viability: 0.825
NCI-H1395; first compound 0.8 µM
  relative viability: 0.736
NCI-H1395; first compound 2.53 µM
  relative viability: 0.718
NCI-H1395; first compound 8 µM
  relative viability: 0.763
NCI-H3122; first compound 0.08 µM
  relative viability: 0.36
NCI-H3122; first compound 0.253 µM
  relative viability: 0.551
NCI-H3122; first compound 0.8 µM
  relative viability: 0.45
NCI-H3122; first compound 2.53 µM
  relative viability: 0.38
NCI-H3122; first compound 8 µM
  relative viability: 0.534
NCI-H441; first compound 0.08 µM
  relative viability: 0.221
NCI-H441; first compound 0.253 µM
  relative viability: 0.232
NCI-H441; first compound 0.8 µM
  relative viability: 0.223
NCI-H441; first compound 2.53 µM
  relative viability: 0.257
NCI-H441; first compound 8 µM
  relative viability: 0.265
NCI-H727; first compound 0.08 µM
  relative viability: 0.704
NCI-H727; first compound 0.253 µM
  relative viability: 1.05
NCI-H727; first compound 2.53 µM
  relative viability: 0.773
NCI-H727; first compound 8 µM
  relative viability: 0.895
NCI-H650; first compound 0.08 µM
  relative viability: 0.317
NCI-H650; first compound 0.253 µM
  relative viability: 0.352
NCI-H650; first compound 0.8 µM
  relative viability: 0.513
NCI-H650; first compound 2.53 µM
  relative viability: 0.322
NCI-H650; first compound 8 µM
  relative viability: 0.29
NCI-H522; first compound 0.08 µM
  relative viability: 0.693
NCI-H522; first compound 0.253 µM
  relative viability: 0.743
NCI-H522; first compound 0.8 µM
  relative viability: 0.689
NCI-H522; first compound 2.53 µM
  relative viability: 0.66
NCI-H522; first compound 8 µM
  relative viability: 0.796
NCI-H2347; first compound 0.08 µM
  relative viability: 0.606
NCI-H2347; first compound 0.253 µM
  relative viability: 0.663
NCI-H2347; first compound 0.8 µM
  relative viability: 0.627
NCI-H2347; first compound 2.53 µM
  relative viability: 0.616
NCI-H2347; first compound 8 µM
  relative viability: 0.629
NCI-H838; first compound 0.08 µM
  relative viability: 0.471
NCI-H838; first compound 0.253 µM
  relative viability: 0.519
NCI-H838; first compound 0.8 µM
  relative viability: 0.457
NCI-H838; first compound 2.53 µM
  relative viability: 0.452
NCI-H838; first compound 8 µM
  relative viability: 0.497
NCI-H2023; first compound 0.08 µM
  relative viability: 0.214
NCI-H2023; first compound 0.253 µM
  relative viability: 0.276
NCI-H2023; first compound 0.8 µM
  relative viability: 0.25
NCI-H2023; first compound 2.53 µM
  relative viability: 0.245
NCI-H2023; first compound 8 µM
  relative viability: 0.229
